Data: patent US12391701B2, “Chromene-based compounds, methods and uses thereof” (University of Minho, priority 2019, dated 2025)

How the values were obtained:
[1] = tested on: Caenorhabditis elegans; experiment: C. elegans food clearance toxicity assay; type: in vivo; conditions: several concentrations up to 150 μM (MC369 75 μM)
Protocol: In an embodiment, toxicity assessment of the compounds in vivo was performed using Caenorhabditis elegans (C. elegans) as a model. A food clearance-based assay was performed, in which the bacteria consumption over time is a proxy for worm development, health and fertility (FIG. 11). […] Worms were cultivated for 7 days in liquid media using heat-inactivated bacteria (E. coli OP50) as a food source and in the presence of several concentrations of compounds MC421, MC406, MC369 and MC408, MC409, MC407. The rate of food consumption between days 3-5 was used as an indication for worm development, health and also fertility, as after day 3 the worms' progeny will contribute to the faster decline in food abundance. An example is shown for hypothetical compound X. DMSO 1% and 5% are used as negative and positive controls for toxicity, respectively. For this experiment, the compounds were solubilized in DMSO 1% (vehicle). In an embodiment, Bristol strain N2 (provided by the CGC, funded by the NIH Office of Research Infrastructure Programs—P40 OD010440) was used to test each compound's toxicity based on a food clearance assay using C. elegans. The assay was performed on 96-well plates in liquid culture (Voisine et al. 2007; Teixeira-Castro et al. 2015). Each well, with a final volume of 60 μL, comprised the following: approximately 20 worms in egg stage, OP50 bacteria to a final OD of 0.6-0.8 (595 nm) and each compound at the appropriate concentration. The worms were grown with continuous shaking at 180 rpm/20° C. (Shel lab Si series incubator) for 7 days and the absorbance (OD595) was measured daily on a microplate reader (Tecan Infinite M200). The effect of the compounds on C. elegans physiology was monitored by the rate at which the E. coli food suspension was consumed (FIG. 14). Age-synchronized worm eggs were obtained by “egg prep” as follows: adult worms were treated with an alkaline hypochlorite solution (20% bleach, 25% 1M NaOH) for 6 minutes, thereafter centrifuged and washed in M9 buffer twice. The egg pellet was then re-suspended in S-medium to obtain the appropriate egg concentration before being transferred to 96-well plates. The OP50 bacteria was prepared by inactivating an overnight culture (37° C., 180 rpm, Luria Broth media) with 4 freeze-thaw cycles. Before use, the OP50 was re-suspended in supplemented S-medium (cholesterol, streptomycin, penicillin and nystatin). The compounds were prepared in 100% DMSO (Sigma) and diluted up to a test concentration of 1% DMSO to prevent solvent toxicity. For each compound, several concentrations (150-10 μM) were tested, with the exception of MC369 (75-10 μM) due to solubility issues. For each compound, several concentrations were used and the corresponding OD595 consumption rate (slope) for days 3-5 was calculated. The compounds were tested in worms grown in 96 well plates (PlateLayout.xls, Supporting Information), in two independent experiments. For the statistical analysis, the data from both experiments were pooled together and IBM SPSS was used to apply an ANOVA (Brown-Forsythe robust test of equality of means) followed by the Games-Howell post hoc test to compare the different concentrations used for each compound and 5% DMSO (wt/v) to the control (1% DMSO(wt/v)).

[2] = tested on: TNBC cell line Hs578t; experiment: Cell viability assay (MTS), Hs578t; type: cell-based; conditions: Homo sapiens, Hs-578T; 72 h incubation
Description: In an embodiment, for a comparison study, monomers and respective dimers were selected and further evaluated in Hs578t and MDA-MB-468 breast cell lines. […] These cell lines correspond to the basal-like subtype of breast cancer, included in the known triple negative subtype, since they are negative for Estrogen receptor (ER), progesterone receptor (PR) and Human epidermal growth factor receptor 2 (HER2) molecular markers. The clinical behaviour of these breast cancer subtype is very aggressive and there is still no specific molecular therapy available.
In an embodiment, three human breast cancer cell lines Hs578T, MDA-MB-468 and MCF-7, and a normal breast cell line MCF-10A, were obtained from ATCC (American Type Culture Collection). The cancer cell lines were cultured in Dulbecco's modified Eagle medium, 4.5 g/l glucose (DMEM, Gibco) supplemented with 10% heating inactivated Fetal Bovine Serum (FBS, Gibco) and 1% antibiotic solution (Penicillin-Streptomycin, Gibco). The normal cell line was cultured in Dulbecco's Modified Eagle Medium: Nutrient Mixture F-12 (DMEM/F12, Gibco) supplemented with 5% heating inactivated FBS (Gibco), 1% antibiotic solution (Penicillin-Streptomycin, Gibco), 1% steroid hormone (Hydrocortisone, Sigma-Aldrich), 0.1% peptide hormone (Insulin, Sigma-Aldrich) and 0.01% protein complex (Cholera Toxin, Gibco). Two distinct human acute myeloid leukemia (AML) cell lines, HL-60 (FAB M2) and KG-1 (erythroleukemia-FAB M6), and one human lymphoblastic leukemia (ALL) cell line, Jurkat (T cell type), were also used. These three cell lines were obtained from German Collection of Microorganisms and Cell cultures (DMSZ®, Deutsche Sammlung von Mikroorganismen and Zellkulturen in German). Cells were cultured in RPMI 1640 medium (Biochrom®-Merck Millipore) supplemented with 10% heating inactivated FBS (Biochrom®-Merck Millipore) and 1% antibiotic/antimitotic mixture (Invitrogen®). Three human glioblastoma (GBM) cell line models, two established and commercially available cell lines (U87MG and GAMG, kind gift from Rui M. Reis) and one primary GBM culture (GLIB) were also used. GBM cells were cultures in DMEM (Biochrom-Merck Millipore), all supplemented with 10% FBS. The Renal cell carcinoma cell lines A498, 786-O, Caki-2 and HK2 were obtained from ATCC. The cancer cell line A498 was cultured in MEM medium (Biochrom®-Merck Millipore), 786-O was cultured in RPMI 1640 medium (Biochrom®-Merck Millipore), Caki-2 was cultured in Mc Coys medium (Biochrom®-Merck Millipore) and HK2 was cultured in RPMI 1640 medium (Biochrom®-Merck Millipore). All the media were supplemented with 10% heat inactivated FBS (Biochrom®-Merck Millipore) and 1% antibiotic/antimitotic mixture (Invitrogen®). All cells were grown in a humidified incubator at 37° C. and 5% CO2. For all assays, DMSO (Dimethyl Sulfoxide, Sigma-Aldrich) controls were used.
In an embodiment, cell viability assays were performed. MCF-7, Hs578T and MCF-10A cells were plated in triplicate in 96-multiwell culture plates, at 3000 cells […], or 5000 cells […] for MDA-MB-468 (100 μL/well). The cells were then allowed to adhere in complete medium, over a period of 18-20 hours. Cells were subsequently treated with 7 different concentrations (from 0.1 to 40 μM or 5 to 60 μM) of compounds or control in fresh medium. HL-60, KG-1 and Jurkat cell lines were plated in 96-multiwell culture plates at 50.000 cells/100 μL per well and treated with different concentrations (from 0.001 to 2 μM) of the compounds described (or control). Cells were plated, in triplicate, at an initial density of 2000 cells/well for GAMG, 4000 cells/well for GL18 and 6000 cells/well for U87MG, in 96-well plates, and allowed to adhere for 18-20 hours. Cells were then treated with different concentrations of the compounds (0.005 to 100 μM) or with control. […]

| SMILES | rate of food consumption between days 3-5 vs 1% DMSO [1] | IC50 [2] [nM] |
| --- | --- | --- |
| COc1cccc2c1Oc1nc(-c3ccccc3F)[nH]c1C2C1c2cccc(OC)c2Oc2nc(-c3ccccc3F)[nH]c21 (stereo not drawn) [MC369, 2,2′-bis(2-fluorophenyl)-5,5′-dimethoxy-1,1,9,9′-tetrahydro-9,9′-bichromeno[2,3-]imidazoles] | No statistical differences |  |
| COc1cccc2c1Oc1nc(-c3ccc(F)cc3)[nH]c1C2C1c2cccc(OC)c2Oc2nc(-c3ccc(F)cc3)[nH]c21 (stereo not drawn) [MC406, 2,2′-bis(4-fluorophenyl)-5,5′-dimethoxy-1,1,9,9′-tetrahydro-9,9′-bichromeno[2,3-]imidazoles] | No statistical differences | 53 |
| COc1cccc2c1Oc1nc(-c3ccccc3F)[nH]c1C2 [MC407, 2-(2-fluorophenyl)-5-methoxy-3,9-dihydrochromeno[2,3-d]imidazoles] | No statistical differences |  |
| COc1cccc2c1Oc1nc(-c3ccc(Br)cc3)[nH]c1C2 [MC408, 2-(4-bromophenyl)-5-methoxy-3,9-dihydrochromeno[2,3-d]imidazoles] | No statistical differences | 47 |
| COc1cccc2c1Oc1nc(-c3ccc(F)cc3)[nH]c1C2 [MC409, 2-(4-fluorophenyl)-5-methoxy-3,9-dihydrochromeno[2,3-d]imidazoles] | No statistical differences | 270 |
| COc1cccc2c1Oc1nc(-c3cc(F)cc(F)c3O)[nH]c1C2 [MC410, 2,4-difluoro-6-(5-methoxy-3,9-dihydrochromeno[2,3-d]imidazol-2-yl)phenol] |  | > 20000 |
| COc1ccccc1-c1nc2c([nH]1)Cc1cccc(OC)c1O2 [MC411, 5-methoxy-2-(2-methoxyphenyl)-3,9-dihydrochromeno[2,3-]imidazoles] |  | 8610 |
| COc1cccc2c1Oc1nc(-c3ccc(O)cc3)[nH]c1C2 [MC413, 4-(5-methoxy-3,9-dihydrochromeno[2,3-d]imidazol-2-yl)phenol] |  | 990 |
| CCOc1ccc(-c2nc3c([nH]2)Cc2cccc(OC)c2O3)cc1 [MC415, 2-(4-ethoxyphenyl)-5-methoxy-3,9-dihydrochromeno[2,3-d]imidazoles] |  | 580 |
| COc1ccc(-c2nc3c([nH]2)Cc2cccc(OC)c2O3)c(Br)c1O [MC416, 2-bromo-6-methoxy-3-(5-methoxy-3,9-dihydrochromeno[2,3-]imidazol-2-yl)phenol] |  | 3160 |
| COc1cccc2c1Oc1nc(-c3ccc(Br)cc3)[nH]c1C2C1c2cccc(OC)c2Oc2nc(-c3ccc(Br)cc3)[nH]c21 (stereo not drawn) [MC421, 2,2′-bis(4-bromophenyl)-5,5′-dimethoxy-1,1,9,9′-tetrahydro-9,9′-bichromeno[2,3-]imidazoles] | No statistical differences | 35 |
